Test results: patent US11535633B2, “Fused tricyclic heterocycle compounds and therapeutic uses thereof” (Jiangsu Hengrui Medicine Co., Ltd., priority 2018, dated 2022)

How the values were obtained:
[1] = biological target: T1, STING in THP1-Dual KI-hSTING-R232 cells (Homo sapiens, UniProt Q86WV6, H232R); assay: Human THP1 reporter cell assay (IRF luciferase reporter); type: cell-based; conditions: 24 hours incubation
T1 construct: host or cells: THP1-Dual KI-hSTING-R232 cells (human monocytic THP-1 reporter line)
T1 sequence (Q86WV6 whole entry H232R): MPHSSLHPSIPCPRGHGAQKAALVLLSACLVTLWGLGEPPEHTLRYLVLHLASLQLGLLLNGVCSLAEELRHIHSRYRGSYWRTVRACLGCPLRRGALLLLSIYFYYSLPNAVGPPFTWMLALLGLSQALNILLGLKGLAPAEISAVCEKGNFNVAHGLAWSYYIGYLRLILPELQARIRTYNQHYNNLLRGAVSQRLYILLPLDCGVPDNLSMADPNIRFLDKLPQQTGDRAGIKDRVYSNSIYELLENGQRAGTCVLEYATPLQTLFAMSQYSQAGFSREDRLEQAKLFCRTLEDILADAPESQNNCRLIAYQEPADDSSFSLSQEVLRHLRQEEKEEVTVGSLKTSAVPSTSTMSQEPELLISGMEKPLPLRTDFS
Procedure: Test Example 2. Human THP1 Reporter Cell Assay
• 1. Human THP1-Dual KI-hSTING-R232 Cells (InvivoGen, Cat. #thpd-r232) • 2. QUANTI-LUC (InvivoGen, Cat. #rep-qlc2) • 3. Media for cell culture and compound dilution: RPMI with high glucose and glutamine (Genesee, Cat. #25-506), 10% fetal bovine serum (Life Technologies, Cat. #10082147), 25 mM HEPES (Genesee, Cat. #25-534), 100 μg/ml Normocin (InvivoGen, Cat. #ant-nr-2), 10 μg/ml blasticidin (InvivoGen, Cat. #ant-bl-05), 100 μg/ml Zeocin (InvivoGen, Cat. #ant-zn-5p) and Penicillin-Streptomycin (100×) (Life Technologies, Cat. #15140122) • 4. Infinite M1000 plate reader (TECAN) Experimental Procedure
Activation of STING in THP1-Dual KI-hSTING-R232 cells was determined by measuring the luminescence signal resulting from the expression of the IRF luciferase reporter gene. All reagent preparation and assay procedures were conducted according to the protocols provided by InvivoGen. In brief, test compounds and cells (1×10^5 cells per well) were dispensed into 96-well plates with a final volume per well of 150 μl. Plates were incubated in a humidified, 5% CO2 incubator at 37° C. for 24 hours. The expression level of the reporter gene was measured by transferring 20 μl of the supernatant to a non-transparent 96-well plate to which 50 μl of QUANTI-LUC was dispensed into each well. The resulting luminescence signal was immediately read using a TECAN plate reader. The background luminescence signal from media was subtracted. The fold induction effect of the luminescence signal at each compound concentration was determined relative to controls that lack compound treatment. The plot of fold induction effect versus the log of compound concentration was fit in GraphPad Prism with a 4-parameter concentration response equation to calculate EC50 and Emax.
Activation of STING in THP1 of the compounds in the present invention was determined by the above assay, and EC50 values are shown in the following table 2.

Human PBMC cells = assay: IFNβ secretion in human PBMC; type: cell-based; conditions: IFNβ in supernatant by ELISA, 5 hours incubation
Procedure: Test Example 3. IFNβ Secretion in Human PBMC
• 1. Human PBMC cells (STEMCELL Technologies) • 2. Lymphocyte Medium (Zenbio) • 3. Culture and compound dilution media: RPMI with high glucose and glutamine (Genesee, Cat. #25-506), 10% fetal bovine serum (Life Technologies, Cat. #10082147), 100 μg/ml Normocin (InvivoGen, Cat. #ant-nr-2) and Penicillin-Streptomycin (100×) (Life Technologies, Cat. #15140122) • 4. Human IFNβ Quantikine ELISA kit (R&D systems) • 5. Infinite M1000 plate reader (TECAN) Experimental Procedure
Cryopreserved peripheral blood human mononuclear cells (PBMCs) were rapidly thawed and resuspended in Lymphocyte Media and centrifuged at 500×g for 5 minutes. The supernatant was removed and the cell pellets were gently resuspended in cell culture and compound dilution media. Human PBMC cells were plated in a 96-well format at a concentration of 1.5×10^5 cells per well. The test compounds, at varying concentrations, or vehicle control (<0.3% DMSO) were mixed with the cells giving a final volume of 150 μl per well. The plates were incubated for 5 hours in a humidified, 5% CO2 incubator at 37° C. After incubation, the human IFNβ in the supernatant and the IFNβ standard controls were measured using human IFNβ Quantikine ELISA kit according to the manufacturer's protocol. The absorbance at 450 nm was measured with Infinite M1000 plate reader and corrected by background reading at 540 nm of each well. The amount of […] based on the standard curves. The plot of IFNβ concentration versus the log of compound concentration was fit in GraphPad Prism with a 4-parameter concentration response equation to calculate EC50 and Emax.

[2] = biological target: T2, hSTING c-terminal domain (purified hSTING aa154-342) (Homo sapiens, UniProt Q86WV6); assay: Thermal shift assay for measuring the relative binding affinity to hSTING c-terminal domain; conditions: Tm of sample minus mean Tm of negative control (buffer, 2% DMSO), SYPRO Orange
T2 construct: Purified hSTING (aa154-342)
T2 sequence (Q86WV6 154-342): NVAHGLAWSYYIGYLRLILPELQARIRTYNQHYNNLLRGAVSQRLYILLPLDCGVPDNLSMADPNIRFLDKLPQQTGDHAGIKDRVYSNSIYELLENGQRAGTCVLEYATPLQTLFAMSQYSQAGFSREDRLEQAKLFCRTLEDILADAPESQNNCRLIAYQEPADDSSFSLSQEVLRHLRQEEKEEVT
Procedure: Test Example 1. Thermal Shift Assay for Measuring the Relative Binding Affinity to hSTING c-Terminal Domain
From each of the 10 mM stock solutions of compounds in DMSO, dilutions are made to create samples with three concentrations 10 mM, 5 mM and 2.5 mM. From these dilutions a final 50 fold dilution is made into assay buffer, giving concentrations of 200 μM, 100 μM, and 50 μM. From each of the buffer dilutions, 5 μL is added to the 384 well assay plate. A positive control is setup with cGAMP using the same dilution scheme as the ligands. A baseline thermal shift for the negative control is determined using buffer and 2% DMSO.
An aliquot of protein is thawed on ice and SYPRO orange reagent is brought to room temperature. The 5000× SYPRO orange stock is diluted in assay buffer to a concentration of 10×. Protein is diluted to a concentration of 10 μM in the prepared buffer/dye solution. Five micro-liters of protein/buffer/dye solution is added to each of the sample and control wells, and the plate is sealed with the provided films. The plate is centrifuged for 5 min at 20° C. at 1000 rpm.
On the Light Cycler instrument, measurements are made over a temperature gradient from 20° C. to 99° C. at 0.07° C./s and data acquisitions collected at a rate of 8/° C. is used to measure the change in fluorescence as a function of temperature. Data analysis is performed using the Roche Light Cycler Software to determine the melting temperature (Tm ° C.) of each sample. A mean Tm ° C. for the negative control is calculated and subtracted from each of the samples to generate the ΔTm ° C. values for each of the ligands.
The relative binding affinity to hSTING c-terminal domain of the compounds of the present invention was determined by the above assay, and ΔTm ° C. values are shown in the following table 1.

EC50 [1] [nM]	ΔTm at 100 µM [2] [°C]	Structure (SMILES)	EC50 (Human PBMC cells) [nM]
1600	5.7	C=CC[C@H]1COc2cc(C(N)=O)cc3nc(NC(=O)c4cc(C)nn4CC)n1c23 [Example 1, (S)-3-allyl-2-(1-ethyl-3-methyl-1H-pyrazole-5-carboxamido)-3,4-dihydro-5-oxa-1,2a-diazaacenaphthylene-7-carboxamide]	1100
3000	2.9	CC=CCC1COc2cc(C(N)=O)cc3nc(NC(=O)c4cc(C)nn4CC)n1c23 (stereo not shown) [Example 5, 3-(but-2-en-1-yl)-2-(1-ethyl-3-methyl-1H-pyrazole-5-carboxamido)-3,4-dihydro-5-oxa-1,2a-diazaacenaphthylene-7-carboxamide]	2000
1300		C/C=C\C[C@H]1COc2cc(C(N)=O)cc3nc(NC(=O)c4cc(C)nn4CC)n1c23 [Example 5-2, (S,Z)-3-(but-2-en-1-yl)-2-(1-ethyl-3-methyl-1H-pyrazole-5-carboxamido)-3,4-dihydro-5-oxa-1,2a-diazaacenaphthylene-7-carboxamide]	1900
1300		C/C=C/C[C@H]1COc2cc(C(N)=O)cc3nc(NC(=O)c4cc(C)nn4CC)n1c23 [Example 5-3, (S,E)-3-(but-2-en-1-yl)-2-(1-ethyl-3-methyl-1H-pyrazole-5-carboxamido)-3,4-dihydro-5-oxa-1,2a-diazaacenaphthylene-7-carboxamide]	1500
	5.5	C=CC[C@H]1COc2cc(C(N)=O)cc3nc(NC(=O)c4cc(C)nn4CCC)n1c23 [Example 11, (S)-3-allyl-2-(3-methyl-1-propyl-1H-pyrazole-5-carboxamido)-3,4-dihydro-5-oxa-1,2a-diazaacenaphthylene-7-carboxamide]	17000
	4	CCn1nc(C)cc1C(=O)Nc1nc2cc(C(N)=O)cc(OC)c2n1CC=C[C@H]1COc2cc(C(N)=O)cc3nc(NC(=O)c4cc(C)nn4CC)n1c23 [Example 14, (S)-3-(3-(5-carbamoyl-2-(1-ethyl-3-methyl-1H-pyrazole-5-carboxamido)-7-methoxy-1H-benzo[d]imidazol-1-yl)prop-1-en-1-yl)-2-(1-ethyl-3-methyl-1H-pyrazole-5-carboxamido)-3,4-dihydro-5-oxa-1,2a-diazaacenaphthylene-7-carboxamide]	1800
	3	CCn1nc(C)cc1C(=O)Nc1nc2cc(C(N)=O)cc(OC)c2n1C/C=C/C[C@H]1COc2cc(C(N)=O)cc3nc(NC(=O)c4cc(C)nn4CC)n1c23 [Example 15, (S,E)-3-(4-(5-carbamoyl-2-(1-ethyl-3-methyl-1H-pyrazole-5-carboxamido)-7-methoxy-1H-benzo[d]imidazol-1-yl)but-2-en-1-yl)-2-(1-ethyl-3-methyl-1H-pyrazole-5-carboxamido)-3,4-dihydro-5-oxa-1,2a-diazaacenaphthylene-7-carboxamide]	19000
160		CCn1nc(C)cc1C(=O)Nc1nc2cc(C(N)=O)ccc2n1CCC[C@H]1COc2cc(C(N)=O)cc3nc(NC(=O)c4cc(C)nn4CC)n1c23 [Example 18, (S)-3-(3-(5-carbamoyl-2-(1-ethyl-3-methyl-1H-pyrazole-5-carboxamido)-1H-benzo[d]imidazol-1-yl)propyl)-2-(1-ethyl-3-methyl-1H-pyrazole-5-carboxamido)-3,4-dihydro-5-oxa-1,2a-diazaacenaphthylene-7-carboxamide]	300
		CCn1nc(C)cc1C(=O)Nc1nc2cc(C(N)=O)cc(OCCCO)c2n1CCC[C@H]1COc2cc(C(N)=O)cc3nc(NC(=O)c4cc(C)nn4CC)n1c23 [Example 19, (S)-3-(3-(5-carbamoyl-2-(1-ethyl-3-methyl-1H-pyrazole-5-carboxamido)-7-(3-hydroxypropoxy)-1H-benzo[d]imidazol-1-yl)propyl)-2-(1-ethyl-3-methyl-1H-pyrazole-5-carboxamido)-3,4-dihydro-5-oxa-1,2a-diazaacenaphthylene-7-carboxamide]	700
100		CCn1nc(C)cc1C(=O)Nc1nc2cc(C(N)=O)cc(OCCCN3CCOCC3)c2n1CCC[C@H]1COc2cc(C(N)=O)cc3nc(NC(=O)c4cc(C)nn4CC)n1c23 [Example 22, (S)-3-(3-(5-carbamoyl-2-(1-ethyl-3-methyl-1H-pyrazole-5-carboxamido)-7-(3-morpholinopropoxy)-1H-benzo[d]imidazol-1-yl)propyl)-2-(1-ethyl-3-methyl-1H-pyrazole-5-carboxamido)-3,4-dihydro-5-oxa-1,2a-diazaacenaphthylene-7-carboxamide]	340
350	12	CCn1nc(C)cc1C(=O)Nc1nc2cc(C(N)=O)cc(OCCCN(C)C)c2n1CCC[C@H]1COc2cc(C(N)=O)cc3nc(NC(=O)c4cc(C)nn4CC)n1c23 [Example 24, (S)-3-(3-(5-carbamoyl-7-(3-(dimethylamino)propoxy)-2-(1-ethyl-3-methyl-1H-pyrazole-5-carboxamido)-1H-benzo[d]imidazol-1-yl)propyl)-2-(1-ethyl-3-methyl-1H-pyrazole-5-carboxamido)-3,4-dihydro-5-oxa-1,2a-diazaacenaphthylene-7-carboxamide]	
500	13	C=CCOc1cc(C(N)=O)cc2nc(NC(=O)c3cc(C)nn3CC)n(CCC[C@H]3COc4cc(C(N)=O)cc5nc(NC(=O)c6cc(C)nn6CC)n3c45)c12 [Example 25, (S)-3-(3-(7-(allyloxy)-5-carbamoyl-2-(1-ethyl-3-methyl-1H-pyrazole-5-carboxamido)-1H-benzo[d]imidazol-1-yl)propyl)-2-(1-ethyl-3-methyl-1H-pyrazole-5-carboxamido)-3,4-dihydro-5-oxa-1,2a-diazaacenaphthylene-7-carboxamide]	
